Measurements as given in ChEMBL document CHEMBL5113483, “Design and synthesis of NAD(P)H: Quinone oxidoreductase (NQO1)-activated prodrugs of 23-hydroxybetulinic acid with enhanced antitumor properties” (Eur J Med Chem, 2022).
pIC50: −log10 of the molar value.

Assays:
A549 = assay: Antiproliferative activity against human A549 cells overexpressing NQO1 assessed as inhibition of cell growth incubated for 72 hrs by MTT assay; format: functional, cell-based; conditions: A549, 72 h
HT-29 [1] = assay: Antiproliferative activity against human HT-29 cells overexpressing NQO1 assessed as inhibition of cell growth incubated for 72 hrs by MTT assay; format: functional, cell-based; conditions: HT-29, 72 h
NCI-H596 = assay: Antiproliferative activity against NQO1-deficient human NCI-H596 cells assessed as inhibition of cell growth incubated for 72 hrs by MTT assay; format: functional, cell-based; conditions: NCI-H596, 72 h
[2] = Cytotoxicity against human HFL1 cells assessed as inhibition of cell growth incubated for 72 hrs by MTT assay; format: toxicity, cell-based
[3] = Selectivity index, ratio of IC50 for cytotoxicity against human HFL1 cells to IC50 for antiproliferative activity against human HT-29 cells overexpressing NQO1; format: toxicity, cell-based; conditions: HFL1 cells versus HT-29 cells overexpressing NQO1, read-out: Ratio IC50
[4] = Selectivity index, ratio of IC50 for antiproliferative activity against NQO1-deficient human NCI-H596 cells to IC50 for antiproliferative activity against human HT-29 cells overexpressing NQO1; format: functional
HT-29 [5] = assay: Antitumor activity against human HT-29 cells overexpressing NQO-1 xenografted in ICR mouse assessed as reduction in tumor weight at 30 mg/kg, ip administered every 2 days for 21 days and measured every 2 days relative to control; format: functional; parameters: scale not given: the % may be the effect or the level left
[6] = Toxicity in […] xenografted with human HT-29 cells overexpressing NQO-1 assessed as reduction in body weight at 30 mg/kg, ip administered for 21 days and measured every 2 days; format: organism-based; conditions: in vivo, 504 h, time 21 day
HT-29 [7] = assay: Antiproliferative activity against human HT-29 cells overexpressing NQO1 assessed as inhibition of cell growth preincubated with NQO1 inhibitor, dicoumarol for 30 mins followed by compound addition and measured after 72 hrs by MTT assay; format: functional, cell-based
[8] = Selectivity index, ratio of IC50 for antiproliferative activity against human HT-29 cells overexpressing NQO1 in presence of dicoumarol to antiproliferative activity against human HT-29 cells overexpressing NQO1; format: functional
HT-29 [9] = assay: Antitumor activity against human HT-29 cells overexpressing NQO-1 xenografted in ICR mouse assessed as reduction in tumor weight at 30 mg/kg, ip administered every day for 21 days and measured every 2 days relative to control; format: functional; parameters: scale not given: the % may be the effect or the level left; conditions: time 21 day

Compound | pIC50 (A549) | pIC50 (HT-29 [1]) | pIC50 (NCI-H596) | IC50 at 72 h [2] [µM] | selectivity ratio [3] | Ratio IC50 [4] | Activity (HT-29 [5]) [%] | Activity [6] | pIC50 (HT-29 [7]) | Ratio IC50 [8] | Activity (HT-29 [9]) [%]
C=C(C)[C@@H]1CC[C@]2(C(=O)OCCOC(=O)CCC(=O)OCc3cn(C)c4c3C(=O)C(OC)=CC4=O)CC[C@]3(C)[C@H](CC[C@@H]4[C@@]5(C)CC[C@H](NC(=O)CCC(=O)N6CCNCC6)[C@@](C)(COC(C)=O)[C@@H]5CC[C@]43C)[C@@H]12 | 5.29 | 5.44 | 5.19 | 7.11 | 1.77 | 1.96 |  |  |  |  | 
C=C(C)[C@@H]1CC[C@]2(C(=O)OCCOC(=O)CCC(=O)OCc3cn(C)c4c3C(=O)C(OC)=CC4=O)CC[C@]3(C)[C@H](CC[C@@H]4[C@@]5(C)CC[C@H](O)[C@@](C)(COC(=O)C6CCNCC6)[C@@H]5CC[C@]43C)[C@@H]12 | 5.27 | 5.37 | 5.13 | 6.83 | 1.7 | 1.59 |  |  |  |  | 
O=c1[nH]cc(F)c(=O)[nH]1 [FLUOROURACIL] |  |  |  |  |  |  | 65.07 | Toxic |  |  | 
COc1cccc2c1C(=O)c1c(O)c3c(c(O)c1C2=O)C[C@@](O)(C(=O)CO)C[C@@H]3O[C@H]1C[C@H](N)[C@H](O)[C@H](C)O1 [DOXORUBICIN] | 5.94 | 5.95 | 5.82 |  |  |  |  |  |  |  | 
C=C(C)[C@@H]1CC[C@]2(C(=O)O)CC[C@]3(C)[C@H](CC[C@@H]4[C@@]5(C)CC[C@H](OC(=O)CCCC(=O)OCc6cn(C)c7c6C(=O)C(OC)=CC7=O)[C@@](C)(COC(C)=O)[C@@H]5CC[C@]43C)[C@@H]12 | 5.39 | 5.45 | 5.34 | 4.09 | 1.27 | 1.36 |  |  |  |  | 
C=C(C)[C@@H]1CC[C@]2(C(=O)N3CCC(N4CCCCC4)CC3)CC[C@]3(C)[C@H](CC[C@@H]4[C@@]5(C)CC[C@H](O)[C@@](C)(COC(=O)CCC(=O)OCc6cn(C)c7c6C(=O)C(OC)=CC7=O)[C@@H]5CC[C@]43C)[C@@H]12 | 5.58 | 5.76 | 5.19 | 6.56 | 3.71 | 3.79 |  |  | 5.15 | 4.1 | 
C=C(C)[C@@H]1CC[C@]2(C(=O)O)CC[C@]3(C)[C@H](CC[C@@H]4[C@@]5(C)CC[C@H](OC(=O)CCC(=O)OCc6cn(C)c7c6C(=O)C(OC)=CC7=O)[C@@](C)(COC(C)=O)[C@@H]5CC[C@]43C)[C@@H]12 | 5.34 | 5.43 | 5.24 | 7.25 | 1.56 | 1.97 |  |  |  |  | 
C=C(C)[C@@H]1CC[C@]2(C(=O)OCCOC(=O)CCC(=O)OCc3cn(C)c4c3C(=O)C(OC)=CC4=O)CC[C@]3(C)[C@H](CC[C@@H]4[C@@]5(C)CCC(=O)[C@@](C)(COC(C)=O)[C@@H]5CC[C@]43C)[C@@H]12 | 5.52 | 5.47 | 5.25 | 6.53 | 1.68 | 1.95 |  |  |  |  | 
C=C(C)[C@@H]1CC[C@]2(C(=O)O)CC[C@]3(C)[C@H](CC[C@@H]4[C@@]5(C)CC[C@H](O)[C@@](C)(CO)[C@@H]5CC[C@]43C)[C@@H]12 | 4.29 | 4.26 | 4.24 | 75 | 1.06 | 1.36 |  |  |  |  | 56.81
C=C(C)[C@@H]1CC[C@]2(C(=O)O)CC[C@]3(C)[C@H](CC[C@@H]4[C@@]5(C)CC[C@H](O)[C@@](C)(COC(=O)CCCC(=O)OCc6cn(C)c7c6C(=O)C(OC)=CC7=O)[C@@H]5CC[C@]43C)[C@@H]12 | 5.60 | 5.72 | 5.33 | 3.23 | 2.46 | 1.69 |  |  |  |  | 
C=C(C)[C@@H]1CC[C@]2(C(=O)OCCOC(=O)CCC(=O)OCc3cn(C)c4c3C(=O)C(OC)=CC4=O)CC[C@]3(C)[C@H](CC[C@@H]4[C@@]5(C)CC[C@H](OC(=O)CCC(=O)N6CCNCC6)[C@@](C)(COC(C)=O)[C@@H]5CC[C@]43C)[C@@H]12 | 5.26 | 5.48 | 5.19 | 6.79 | 1.99 | 2.12 |  |  |  |  | 
C=C(C)[C@@H]1CC[C@]2(C(=O)N(CCCN(C)C)C(=O)NCC)CC[C@]3(C)[C@H](CC[C@@H]4[C@@]5(C)CC[C@H](O)[C@@](C)(COC(=O)CCC(=O)OCc6cn(C)c7c6C(=O)C(OC)=CC7=O)[C@@H]5CC[C@]43C)[C@@H]12 | 5.63 | 5.64 | 5.56 | 4.22 | 1.23 | 1.85 |  |  |  |  | 
C=C(C)[C@@H]1CC[C@]2(C(=O)NCCNC(=O)CCC(=O)OCc3cn(C)c4c3C(=O)C(OC)=CC4=O)CC[C@]3(C)[C@H](CC[C@@H]4[C@@]5(C)CC[C@H](OC(C)=O)[C@@](C)(COC(C)=O)[C@@H]5CC[C@]43C)[C@@H]12 | 5.51 | 5.72 | 5.10 | 5.78 | 4.1 | 3.01 |  |  | 5.10 | 4.2 | 
